Experimental data: US10927096B2, “Ester substituted ion channel blockers and methods for use” (Nocion Therapeutics, Inc., priority 2019, dated 2021)

Key:
[1] = PAMPA membrane permeability assay; type: physicochemical; conditions: pH 7.4 buffer, GIT lipid, 4 hours incubation
Experimental: The PAMPA assay (pION, Inc., Woburn Mass.) was used to determine the ability of compounds of the invention to cross an artificial lipid membrane by passive diffusion. Test compounds were dissolved in DMSO (10 mM) and diluted 200-fold in buffer (pION Inc., pH 7.4) to provide 50 uM stock solutions. Buffer (150 μL) was added to a UV blank plate and stock solutions (150 μL) were transferred to a UV reference plate. The blank and reference spectrum were read using a spectrophotometer. Stock solutions (200 μL) were added to the donor plate of the PAMPA sandwich plate and an accept plate painted with GIT lipid (pION Inc, 5 μL) was placed on top. Buffer (200 μL) was added to the acceptor plate and the PAMPA sandwich plate was incubated for 4 hours. Aliquots (150 μL) from the acceptor plate were added to a UV plate and read as acceptor spectrum. Aliquots (150 μL) of the donor solutions were added to a UV analysis plate and read as donor spectrum. The permeability coefficient of test compounds was calculated using PAMPA Explorer™ software (version 3.5.0.4) based on the AUC of the reference plate, the donor plate, and the acceptor plate.
The PAMPA permeability results (10^−6 cm/s) of representative compounds are reported as “+” (<0.1 10^−6 cm/s), “++” (0.1-2.0 10^−6 cm/s), “+++” (2.0-10.010^−6 cm/s) or “++++” (>10.0 10^−6 cm/s).

[2] = biological target: T1, NaV1.7 (Homo sapiens, UniProt Q15858); assay: Automated patch clamp (Qube 384), internal block of NaV1.7 in HEK293 cells; type: cell-based; conditions: compound in internal solution, read-out: NaV1.7 Intracellular Inhibition
T1 construct: expressed in transfected cells; host or cells: HEK293, tetracycline-inducible
Experimental: (§1) NaV1.7 was expressed in HEK293 cells upon induction with tetracycline. Cells were cultured in DMEM containing 10% dialyzed Fetal Bovine Serum (VWR, Radnor, Pa.), 1% Glutamax (VWR, Radnor, Pa.), 1% Penicillin-Streptomycin (VWR, Radnor, Pa.), 100 mg/L Hygromycin (Thermo Fisher Scientific, Waltham, Mass. and 5 mg/L Blasticidin (Alfa Aesar, Haverhill, Mass.). Cells were grown and maintained at 37° C. in a humidified environment containing 10% CO2 in air. Cells were detached from the culture flask for passage and harvested using 0.05% Trypsin-EDTA (Thermo Fisher Scientific, Waltham, Mass.). To induce NaV1.7, cells were induced with tetracycline (0.1-1 μg/mL, IBI Scientific, Peosta, Iowa) the day before recording.
(§2) Before experiments, cells were washed with DPBS (VWR, Radnor, Pa.), digested with Detachin (VWR Radnor, Pa.) and then triturated 10 times in CHO Serum-Free Media (VWR Radnor, Pa.) to resuspend the cells and to break apart cell aggregates. Cells were counted and the final concentration was set at 2-5 million cells per mL.
(§3) The intracellular solution contained the following: 140 mM CsF, 1 mM/5 mM EGTA/CsOH, 10 mM HEPES, 10 mM NaCl, adjusted to pH 7.3 with CsOH, and osmolality to 320 with sucrose. The external solution contained the following: 145 mM NaCl, 4 mM KCl, 1 mM MgCl2, 2 mM CaCl2, 10 mM HEPES, 10 mM Glucose, adjusted to pH 7.4 with CsOH and osmolality to 305 with sucrose. All chemicals are from Sigma-Aldrich, St. Louis, Mo. In order to test the degree of internal block by test compounds, the compounds were dissolved in internal solution at the indicated test concentration. […] In order to test the degree of external block by test compounds the compounds were dissolved in external solution at the indicated test concentration.
(§4) Automated Patch Clamps were performed on Qube 384 (Sophion Bioscience, Woburn Mass.) with multihole Qchips at a temperature setting of 22 degrees. The whole cells configuration was formed with default Qube seal and break-in parameter. The membrane potential was held at −100 mV before the voltage protocol began. Two voltage protocols were followed.
(§5) Step 1: Cells were held at −100 mV with a depolarized pulse to −20 mV for 10 ms, the interval was set at 5 s. Currents were corrected by default leak subtraction from every pulse. The duration was set at 5 mins.
(§6) Step 2: Cells were held at −100 mV with a depolarized pulse to −20 mV for 10 ms. The frequency was 5 Hz. Currents were corrected by leak subtraction calculated before step 2. The duration was set at 4 mins.
After Step 2, the Qchip was removed from the recording chamber. The internal solution was changed with solutions containing test compounds. Qchips were held at −100 mV without pulsing after being replaced in the recording chamber. The total solution switching time was 8 minutes. After the internal solution exchange, Cells were recorded and step 2 for repeated for 10 minutes.
Data analysis was performed by Sophion Analyzer. Cells were filtered with minimum 50 MOhm seal resistance and minimum 5 nA starting current. The rundown of the currents was corrected with control cells (Non-Drug). The remaining was calculated by averaging last 3 points in the end of experiments. The base line was calculated as the average of last 3 points of Step 2. IC50 curves were plotted with DR-plots/Hill function (a dose-response plot with a Hill fit).
Representative examples of the invention were tested for intracellular inhibition of NaV 1.7 in the automated patch clamp assay. Activity Range is reported as IC50: “++++” (<1 μM), “+++” (1-3 μM), “++” (3-10 μM) or “+” (10-30 μM).

[3] = biological target: T1, NaV1.7; assay: Automated patch clamp (Qube 384), external block of NaV1.7 in HEK293 cells; type: cell-based; conditions: compound in external solution, read-out: NaV1.7 Extracellular Inhibition
Experimental: as §1, §2, §3, §4, §5, §6
After Step 2, the external solution was changed with solutions containing test compounds. Qchips were held at −100 mV without pulsing. The total solution switching time was 8 minutes. After the external solution exchange, cells were recorded using the same procedure as step 2 for 10 minutes.
Data analysis was performed by Sophion Analyzer. Data were corrected with control cells (Non-Drug). The IC50 data were plotted with DR-plots/Hill function (a dose-response plot with a Hill fit).
Representative examples of the invention were tested for extracellular inhibition of NaV 1.7 in the automated patch clamp assay. Activity Range is reported as IC50: “++++” (<1 μM), “+++” (1-10 μM), “++” (10-30 μM) or “+” (>30 μM).

T1 sequence (Q15858 whole entry): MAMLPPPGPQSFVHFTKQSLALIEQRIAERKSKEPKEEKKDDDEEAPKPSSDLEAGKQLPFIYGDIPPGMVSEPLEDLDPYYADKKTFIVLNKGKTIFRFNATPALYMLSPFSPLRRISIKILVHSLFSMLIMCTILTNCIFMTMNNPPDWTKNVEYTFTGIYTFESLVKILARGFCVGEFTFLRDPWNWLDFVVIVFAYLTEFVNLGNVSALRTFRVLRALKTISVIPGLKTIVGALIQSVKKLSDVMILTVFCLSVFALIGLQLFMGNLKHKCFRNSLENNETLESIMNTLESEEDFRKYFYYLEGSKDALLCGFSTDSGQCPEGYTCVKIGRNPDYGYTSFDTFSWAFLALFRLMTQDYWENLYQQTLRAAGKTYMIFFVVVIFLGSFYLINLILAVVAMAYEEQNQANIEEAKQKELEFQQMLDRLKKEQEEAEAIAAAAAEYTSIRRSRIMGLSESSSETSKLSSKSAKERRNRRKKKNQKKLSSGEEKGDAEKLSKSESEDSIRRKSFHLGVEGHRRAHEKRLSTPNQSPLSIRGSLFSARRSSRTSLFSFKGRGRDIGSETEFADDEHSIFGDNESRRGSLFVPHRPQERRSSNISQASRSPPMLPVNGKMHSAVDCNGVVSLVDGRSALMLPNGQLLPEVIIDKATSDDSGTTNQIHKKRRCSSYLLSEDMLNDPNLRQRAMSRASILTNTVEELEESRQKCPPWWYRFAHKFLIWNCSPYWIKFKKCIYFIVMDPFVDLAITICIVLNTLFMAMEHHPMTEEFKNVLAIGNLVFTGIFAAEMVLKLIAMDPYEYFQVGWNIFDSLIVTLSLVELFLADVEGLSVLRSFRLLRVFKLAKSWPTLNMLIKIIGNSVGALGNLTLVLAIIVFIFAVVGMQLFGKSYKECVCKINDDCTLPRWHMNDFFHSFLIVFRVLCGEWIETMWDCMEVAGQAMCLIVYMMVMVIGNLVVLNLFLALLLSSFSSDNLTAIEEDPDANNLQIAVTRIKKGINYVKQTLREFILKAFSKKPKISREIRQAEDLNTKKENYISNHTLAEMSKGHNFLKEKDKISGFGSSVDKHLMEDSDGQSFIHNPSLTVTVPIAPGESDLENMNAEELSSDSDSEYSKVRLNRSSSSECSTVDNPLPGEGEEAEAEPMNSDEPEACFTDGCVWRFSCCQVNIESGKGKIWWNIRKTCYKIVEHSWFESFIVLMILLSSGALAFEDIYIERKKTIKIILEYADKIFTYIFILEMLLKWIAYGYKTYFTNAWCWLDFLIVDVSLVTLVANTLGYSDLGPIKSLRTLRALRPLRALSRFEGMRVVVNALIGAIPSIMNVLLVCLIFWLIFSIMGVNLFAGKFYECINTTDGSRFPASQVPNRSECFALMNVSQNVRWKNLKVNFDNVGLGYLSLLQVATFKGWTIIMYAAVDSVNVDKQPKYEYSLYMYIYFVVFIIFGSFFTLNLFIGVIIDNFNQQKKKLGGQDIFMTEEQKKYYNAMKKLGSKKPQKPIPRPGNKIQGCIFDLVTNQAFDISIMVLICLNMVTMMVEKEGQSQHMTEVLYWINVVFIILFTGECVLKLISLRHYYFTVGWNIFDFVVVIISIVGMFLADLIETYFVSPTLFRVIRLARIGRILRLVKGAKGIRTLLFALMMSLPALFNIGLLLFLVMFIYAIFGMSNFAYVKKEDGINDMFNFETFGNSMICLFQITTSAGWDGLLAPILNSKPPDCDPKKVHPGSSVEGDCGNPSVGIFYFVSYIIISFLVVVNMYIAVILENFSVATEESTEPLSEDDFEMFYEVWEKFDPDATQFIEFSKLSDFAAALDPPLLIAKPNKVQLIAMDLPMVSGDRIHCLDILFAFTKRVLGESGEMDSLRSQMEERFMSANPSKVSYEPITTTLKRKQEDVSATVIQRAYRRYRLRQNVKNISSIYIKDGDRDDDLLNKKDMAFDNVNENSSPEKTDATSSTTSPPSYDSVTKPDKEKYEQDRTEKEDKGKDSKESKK

| Compound | PAMPA (10^−6 cm/s) [1] | IC50 [2] | IC50 [3] |
| --- | --- | --- | --- |
| Cc1cccc(C(=O)OC(C)(C)C)c1NC(=O)C[n+]1cccn1C1CCCCC1.[Br-] [Compound 72] | + (<0.1 10^−6 cm/s) | 1 to 3 µM | 1 to 10 µM |
| CC[N+]1(CC(=O)Nc2c(C)cccc2C(=O)OC)CCCC(C(=O)NC)C1.[I-] (stereo not shown) [Compound 46] | + (<0.1 10^−6 cm/s) | 3 to 10 µM | – |
| CCNC(=O)C1CCC[N+](CC(=O)Nc2c(C)cccc2C(=O)OC)(Cc2ccccc2)C1.O=C([O-])C(F)(F)F (stereo not shown) [Compound 33] | ++ (0.1-2.0 10^−6 cm/s) | < 1 µM | – |
| COC(=O)C[N+]1(CC(=O)Nc2c(C)cccc2C(=O)OC)CCCC(c2ccccc2)C1 (mixture of isomers) [Compound 64] | + (<0.1 10^−6 cm/s) | < 1 µM | – |
| CC[N+]1(CC(=O)Nc2c(C)cccc2C(=O)OC)CCCC(C(=O)OC2CCCCC2)C1 (mixture of isomers) [Compound 27] | + (<0.1 10^−6 cm/s) | 1 to 3 µM | – |
| CCc1cccc(C[N+]2(C(CC)C(=O)Nc3c(C)cccc3C(=O)OC)CCCCC2)c1.O=C[O-] (stereo not shown) [Compound 58] | + (<0.1 10^−6 cm/s) | 3 to 10 µM | – |
| Cc1cccc(C(=O)OC(C)(C)C)c1NC(=O)C[n+]1cccc(-c2ccccc2)c1.[Br-] [Compound 71] | + (<0.1 10^−6 cm/s) | 1 to 3 µM | 1 to 10 µM |
| CCN(CC)C(=O)C[N+]1(CC(=O)Nc2c(C)cccc2C(=O)OC)CCCC(c2ccccc2)C1 (mixture of isomers) [Compound 62] | + (<0.1 10^−6 cm/s) | 1 to 3 µM | – |
| CCOC(=O)c1cccc(C)c1NC(=O)C[N+]1(Cc2ccccc2)CCCCC1.[Br-] [Compound 4] | + (<0.1 10^−6 cm/s) | < 1 µM | 1 to 10 µM |
| CCCOC(=O)C1CCC[N+](CC)(CC(=O)Nc2c(C)cccc2C(=O)OC)C1.[I-] (stereo not shown) [Compound 26] | + (<0.1 10^−6 cm/s) | 1 to 3 µM | – |
| CC[N+]1(CC(=O)Nc2c(C)cccc2C(=O)OC)CCCC(C(=O)OCC(C)C)C1.[I-] (stereo not shown) [Compound 23] | + (<0.1 10^−6 cm/s) | < 1 µM | > 30 µM |
| CCC(C(=O)Nc1c(C)cccc1C(=O)OC)[N+]1(Cc2ccccc2)CCCCC1 (stereo not shown) [Compound 57] | + (<0.1 10^−6 cm/s) | 1 to 3 µM | > 30 µM |
| CC[N+]1(CC(=O)Nc2c(C)cccc2C(=O)OC)CCCC(C(=O)N2CCCCC2)C1.[I-] (stereo not shown) [Compound 45] | + (<0.1 10^−6 cm/s) | < 1 µM | > 30 µM |
| COC(=O)c1cccc(C)c1NC(=O)C[N+]1(Cc2ccccc2)CCCC(C(=O)NC2CCCC2)C1.[Br-] (stereo not shown) [Compound 41] | + (<0.1 10^−6 cm/s) | 1 to 3 µM | – |
| CCOC(=O)c1cccc(C)c1NC(=O)C[n+]1cccc(-c2ccccc2)c1 [Compound 67] | +++ (2.0-10.010^−6 cm/s) | < 1 µM | – |
| CCCCOC(=O)C1CCC[N+](CC)(CC(=O)Nc2c(C)cccc2C(=O)OC)C1.[I-] (mixture of isomers) [Compound 15] | + (<0.1 10^−6 cm/s) | 1 to 3 µM | – |
| COC(=O)c1cccc(C)c1NC(=O)C[N+]1(Cc2ccccc2)CCCC(C(=O)N2CCCC2)C1 (mixture of isomers) [Compound 43] | + (<0.1 10^−6 cm/s) | 1 to 3 µM | – |
| COC(=O)c1cccc(C)c1NC(=O)C[N+]1(CC(N)=O)CCCC(c2ccccc2)C1 (mixture of isomers) [Compound 61] | + (<0.1 10^−6 cm/s) | < 1 µM | – |
| COC(=O)c1cccc(C)c1NC(=O)C[N+]1(Cc2ccccc2)CCCC(C(=O)N2CCCCCC2)C1.[Br-] (stereo not shown) [Compound 34] | + (<0.1 10^−6 cm/s) | 1 to 3 µM | – |
| COC(=O)c1cccc(C)c1NC(=O)C[N+]1(CC(=O)N(C)C)CCCC(c2ccccc2)C1.O=C([O-])C(F)(F)F (stereo not shown) [Compound 60] | + (<0.1 10^−6 cm/s) | < 1 µM | – |
| CCCCOC(=O)C1CCC[N+](CC(=O)Nc2c(C)cccc2C(=O)OC)(Cc2ccccc2)C1.[Br-] (mixture of isomers) [Compound 14] | + (<0.1 10^−6 cm/s) | 1 to 3 µM | – |
| CNC(=O)C[N+]1(CC(=O)Nc2c(C)cccc2C(=O)OC)CCCC(c2ccccc2)C1.[Br-] (mixture of isomers) [Compound 59] | + (<0.1 10^−6 cm/s) | < 1 µM | – |
| CC[N+]1(CC(=O)Nc2c(C)cccc2C(=O)OC)CCCC(C(=O)N2CCCC2)C1 (mixture of isomers) [Compound 54] | + (<0.1 10^−6 cm/s) | 1 to 3 µM | – |
| COC(=O)c1cccc(C)c1NC(=O)C[N+]1(Cc2ccccc2)CCCC(C(=O)N(C)C)C1 (mixture of isomers) [Compound 40] | + (<0.1 10^−6 cm/s) | < 1 µM | – |
| CCCOC(=O)c1cccc(C)c1NC(=O)C[N+]1(Cc2ccccc2)CCCCCC1.[Br-] [Compound 6] | + (<0.1 10^−6 cm/s) | 1 to 3 µM | – |
| CC[N+]1(CC(=O)Nc2c(C)cccc2C(=O)OC)CCCC(C(=O)NC2CCCCC2)C1.[I-] (stereo not shown) [Compound 56] | + (<0.1 10^−6 cm/s) | 1 to 3 µM | – |
